Source: patent publication US20250367121A1, “DOSAGE FORMS COMPRISING ACTIVE PHARMACEUTICAL INGREDIENTS” (AXSOME THERAPEUTICS, INC., priority 2018, published 2025)

Experiment: clinical
Conditions: human, in vivo

`CN(C)CCc1c[nH]c2ccc(Cn3cncn3)cc12` [Rizatriptan, rizatriptan] gave a Cmax of 20.7 ng/mL and a Tmax of 45 min.
